Experimental findings from article PMC5617771 (Bioorganic & medicinal chemistry, 2017) are described below.

For one assay, the system named is HIV-1 LAI. As to the kind of experiment: Antiviral activity in MT-2 cells exposed to HIV-1 LAI. As to conditions: for fold improvement in antiviral assay with respect to 3b: relative to 3b. The format is cell-based.
For the next assay, the target named is HIV-1 protease (Human immunodeficiency virus type 1 group M subtype B, UniProt P04585). As to the kind of experiment: HIV-1 protease enzyme inhibition. In kind it is biochemical.

Take `COc1ccc(S(=O)(=O)N(CC(C)C)C[C@@H](O)[C@H](Cc2ccccc2)NC(=O)c2cccc(C(=O)N3CCC[C@@H]3c3nc(C)co3)c2)cc1` [Inhibitor 4h, N-((2S,3R)-3-hydroxy-4-((N-isobutyl-4-methoxyphenyl)sulfonamido)-1-phenylbutan-2-yl)-3-((R)-2-(4-methyloxazol-2-yl)pyrrolidine-1-carbonyl)benzamide]: the “fold improved antiviral profile with respect to 4g” value with HIV-1 LAI (relative to 4g) came to 10 fold.

For `COc1ccc(S(=O)(=O)N(CC(C)C)C[C@@H](O)[C@H](Cc2ccccc2)NC(=O)c2cccc(C(=O)N(C)Cc3csc(C)n3)c2)cc1` [Inhibitor 3d, N^1-((2S,3R)-3-hydroxy-4-((N-isobutyl-4-methoxyphenyl)sulfonamido)-1-phenylbutan-2-yl)-N^3-methyl-N^3-((2-methylthiazol-4-yl)methyl)isophthalamide], at HIV-1 protease (relative to 3c), the “fold enhanced protease inhibitory activity over 3c” value worked out at 5 fold. Also, in the assay on HIV-1 LAI, the “fold improvement in antiviral assay with respect to 3b” value is listed as “over 20 fold”. Regarding `COc1ccc(S(=O)(=O)N(CC(C)C)C[C@@H](O)[C@H](Cc2ccccc2)NC(=O)c2cccc(C(=O)N(C)Cc3coc(C)n3)c2)cc1` [Inhibitor 3c, N^1-((2S,3R)-3-hydroxy-4-((N-isobutyl-4-methoxyphenyl)sulfonamido)-1-phenylbutan-2-yl)-N^3-methyl-N^3-((2-methyloxazol-4-yl)methyl)isophthalamide], the “fold improvement in antiviral assay with respect to 3b” value with HIV-1 LAI was “over 20 fold”.

Regarding `COc1ccc(S(=O)(=O)N(CC(C)C)C[C@@H](O)[C@H](Cc2ccccc2)NC(=O)c2cccc(C(=O)N3CCC[C@@H]3c3nc(C)cs3)c2)cc1` [Inhibitor 4b, N-((2S,3R)-3-hydroxy-4-((N-isobutyl-4-methoxyphenyl)sulfonamido)-1-phenylbutan-2-yl)-3-((R)-2-(4-methylthiazol-2-yl)pyrrolidine-1-carbonyl)benzamide], the “fold improved potency over (S) counterpart 4a” value at HIV-1 protease (relative to 4a) is listed as “over 100 fold”. As for `COc1ccc(S(=O)(=O)N(CC(C)C)C[C@@H](O)[C@H](Cc2ccccc2)NC(=O)c2cc(O)cc(C(=O)N(C)Cc3nc(C)oc3C)c2)cc1` [Inhibitor 3f, N^1-((2,5-dimethyloxazol-4-yl)methyl)-5-hydroxy-N^3-((2S,3R)-3-hydroxy-4-((N-isobutyl-4-methoxyphenyl)sulfonamido)-1-phenylbutan-2-yl)-N^1-methylisophthalamide], the “fold protease inhibitory potency over methylamino analogue 3e” value on HIV-1 protease (relative to 3e) is reported as 10 fold.
